This note sets out measurements from ChEMBL document CHEMBL1201862, “PubChem BioAssay data set” (2004).

Each structure is given as a SMILES string. The source made the active and inactive calls. Some results are limits rather than exact numbers.

The target of assay [1] is T1, Cytochrome P450 1A2 (Homo sapiens, UniProt P05177).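 Also: PubChem cytochrome P450 panel assay, CYP1A2 panel member.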
T1 sequence (P05177 whole entry): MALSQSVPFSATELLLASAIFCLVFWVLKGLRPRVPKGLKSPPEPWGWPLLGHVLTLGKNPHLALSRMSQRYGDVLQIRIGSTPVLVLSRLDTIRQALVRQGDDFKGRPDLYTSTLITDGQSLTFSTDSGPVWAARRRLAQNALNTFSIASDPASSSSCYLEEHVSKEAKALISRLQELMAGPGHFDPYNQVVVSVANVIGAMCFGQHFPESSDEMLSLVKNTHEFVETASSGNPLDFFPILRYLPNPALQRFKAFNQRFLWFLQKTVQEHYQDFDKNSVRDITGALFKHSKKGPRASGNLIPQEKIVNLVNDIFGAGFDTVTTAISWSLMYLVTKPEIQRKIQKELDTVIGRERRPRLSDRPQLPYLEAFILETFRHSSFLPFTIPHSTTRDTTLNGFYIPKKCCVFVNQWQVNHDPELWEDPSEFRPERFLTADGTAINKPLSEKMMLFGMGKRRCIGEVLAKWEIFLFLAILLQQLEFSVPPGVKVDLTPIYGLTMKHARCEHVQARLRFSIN

Assay [2] has as its target Cytochrome P450 2C19 (Homo sapiens, UniProt P33261). Put plainly: Cytochrome panel assay with activity outcomes. Panel member name: p450-cyp2c19 Compounds with AC50 equal or less than 10 uM are considered active. It is filed as functional. The settings on record: read-out: AC50.
The target in assay [3] is T2, Carboxy-terminal domain RNA polymerase II polypeptide A small phosphatase 1 (Homo sapiens, UniProt Q9GZU7).
T2 sequence (Q9GZU7 whole entry): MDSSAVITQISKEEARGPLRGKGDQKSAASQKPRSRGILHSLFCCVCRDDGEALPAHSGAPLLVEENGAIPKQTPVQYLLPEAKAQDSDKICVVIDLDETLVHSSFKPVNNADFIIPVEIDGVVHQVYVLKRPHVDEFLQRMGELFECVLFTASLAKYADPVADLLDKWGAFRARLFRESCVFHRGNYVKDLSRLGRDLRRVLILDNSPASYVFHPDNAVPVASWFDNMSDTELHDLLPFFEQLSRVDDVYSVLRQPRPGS
Briefly: CTDSP1 inhibitors, concentration-response, biochemical, absorbance readout, ultra-high-throughput screen actives (AID 540297). Format: functional.

Assay [4] deals with Phospholipase A2 (Homo sapiens, UniProt P04054). Format: functional.
In assay [5] the target is T3, Cysteine protease ATG4B (Homo sapiens, UniProt Q9Y4P1).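 Also: Fluorescence-based dose-response confirmation assay measuring inhibition of ATG4B activity.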
T3 sequence (Q9Y4P1 whole entry): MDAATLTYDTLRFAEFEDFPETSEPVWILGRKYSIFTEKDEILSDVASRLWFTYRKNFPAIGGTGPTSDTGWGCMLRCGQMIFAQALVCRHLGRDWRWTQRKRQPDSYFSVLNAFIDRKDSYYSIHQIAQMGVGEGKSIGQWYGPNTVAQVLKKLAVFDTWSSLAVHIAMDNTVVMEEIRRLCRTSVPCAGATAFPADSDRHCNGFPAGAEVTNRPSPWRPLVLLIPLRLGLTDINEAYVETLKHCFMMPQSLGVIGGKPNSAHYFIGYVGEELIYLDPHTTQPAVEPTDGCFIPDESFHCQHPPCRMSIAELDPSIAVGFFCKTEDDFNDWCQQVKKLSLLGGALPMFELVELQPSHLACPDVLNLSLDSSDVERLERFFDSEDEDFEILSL
Format: functional.

Assay [6] has as its system P388. Briefly: cells. It is filed as functional. The settings on record: Mus musculus.
The test system of assay [7] is SN12K1. Briefly: cells. The following applies: Homo sapiens. It is filed as functional.
The test system of assay [8] is P388/ADR. Briefly: cells. Format: functional. The following applies: Mus musculus.
Assay [9] concerns the target Heat shock protein HSP 90-alpha (Homo sapiens, UniProt P07900). Format: functional, organism-based.
Assay [10] has as its target T4, Short transient receptor potential channel 4 (Mus musculus, UniProt Q9QUQ5).
T4 sequence (Q9QUQ5 whole entry): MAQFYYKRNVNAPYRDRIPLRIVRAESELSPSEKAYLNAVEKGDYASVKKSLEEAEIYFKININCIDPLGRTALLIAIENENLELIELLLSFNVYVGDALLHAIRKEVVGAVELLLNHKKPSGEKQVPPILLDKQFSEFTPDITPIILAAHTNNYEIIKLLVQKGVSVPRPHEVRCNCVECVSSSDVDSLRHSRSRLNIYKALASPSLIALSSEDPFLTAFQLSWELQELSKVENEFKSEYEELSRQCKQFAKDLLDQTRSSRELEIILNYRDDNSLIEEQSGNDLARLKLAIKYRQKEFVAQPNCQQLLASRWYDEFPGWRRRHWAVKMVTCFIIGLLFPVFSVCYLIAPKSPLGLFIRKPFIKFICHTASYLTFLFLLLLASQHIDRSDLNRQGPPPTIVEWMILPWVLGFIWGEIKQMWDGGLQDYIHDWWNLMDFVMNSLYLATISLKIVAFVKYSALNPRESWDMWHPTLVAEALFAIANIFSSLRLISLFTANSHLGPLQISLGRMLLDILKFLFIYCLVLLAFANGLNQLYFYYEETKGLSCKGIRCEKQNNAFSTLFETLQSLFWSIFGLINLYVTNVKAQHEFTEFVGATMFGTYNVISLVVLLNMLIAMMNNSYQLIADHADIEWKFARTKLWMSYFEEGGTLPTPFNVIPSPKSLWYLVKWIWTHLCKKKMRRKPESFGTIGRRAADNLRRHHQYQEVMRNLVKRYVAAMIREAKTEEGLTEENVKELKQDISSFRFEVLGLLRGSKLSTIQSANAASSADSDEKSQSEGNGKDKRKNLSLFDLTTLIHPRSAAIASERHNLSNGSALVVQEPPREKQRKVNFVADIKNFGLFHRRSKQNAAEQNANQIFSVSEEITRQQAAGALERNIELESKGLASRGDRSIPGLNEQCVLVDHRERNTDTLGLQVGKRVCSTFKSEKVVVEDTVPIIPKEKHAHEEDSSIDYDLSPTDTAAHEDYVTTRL
Put plainly: calcium entry via TRPC4 opening agents – cell-based, HEK293 TRPC4/mu-opioid, Fluo-4 calcium, dose response (AID 434937). It is filed as functional.

The target of assay [11] is T5, Zinc finger protein mex-5 (Caenorhabditis elegans, UniProt Q9XUB2).
T5 sequence (Q9XUB2 whole entry): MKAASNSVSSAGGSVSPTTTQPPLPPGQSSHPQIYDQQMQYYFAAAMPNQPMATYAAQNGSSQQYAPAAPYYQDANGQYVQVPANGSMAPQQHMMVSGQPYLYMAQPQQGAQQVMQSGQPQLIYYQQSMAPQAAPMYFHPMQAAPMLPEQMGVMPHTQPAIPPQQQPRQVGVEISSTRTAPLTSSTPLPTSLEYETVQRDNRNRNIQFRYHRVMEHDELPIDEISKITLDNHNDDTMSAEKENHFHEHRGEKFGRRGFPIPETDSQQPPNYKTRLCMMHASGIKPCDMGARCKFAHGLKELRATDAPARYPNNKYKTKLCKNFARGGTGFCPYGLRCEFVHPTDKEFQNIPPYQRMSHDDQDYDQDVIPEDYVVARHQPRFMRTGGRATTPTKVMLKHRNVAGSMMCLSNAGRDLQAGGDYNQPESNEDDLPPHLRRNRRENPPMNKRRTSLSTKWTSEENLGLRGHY
Briefly: potency of MEX-5 RNA-binding blockers – biochemical, C. elegans, fluorescence polarization, dose response (AID 1960). Background: Fluorescence polarisation rises when a labelled molecule tumbles more slowly, as on binding a larger partner.

Assay [12] addresses T6, RNA-binding protein pos-1 (Caenorhabditis elegans, UniProt G5EF15).
T6 sequence (G5EF15 whole entry): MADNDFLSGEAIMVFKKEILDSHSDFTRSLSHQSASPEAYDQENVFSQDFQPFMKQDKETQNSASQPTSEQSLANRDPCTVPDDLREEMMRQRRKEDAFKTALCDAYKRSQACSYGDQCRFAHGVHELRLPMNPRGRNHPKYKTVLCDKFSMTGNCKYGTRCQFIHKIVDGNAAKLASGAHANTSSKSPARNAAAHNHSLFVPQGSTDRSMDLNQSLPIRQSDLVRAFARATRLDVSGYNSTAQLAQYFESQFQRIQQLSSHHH
Briefly: disruptors of C. elegans POS-1 RNA interaction – biochemical, fluorescence polarization, dose response (AID 1964).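 Also: purified POS-1 fused to maltose binding protein made in E. coli; potency of compounds blocking POS-1 binding to fluorescent RNA.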

The target in assay [13] is T7, High affinity choline transporter 1 (Homo sapiens, UniProt Q9GZV3).
T7 sequence (Q9GZV3 whole entry): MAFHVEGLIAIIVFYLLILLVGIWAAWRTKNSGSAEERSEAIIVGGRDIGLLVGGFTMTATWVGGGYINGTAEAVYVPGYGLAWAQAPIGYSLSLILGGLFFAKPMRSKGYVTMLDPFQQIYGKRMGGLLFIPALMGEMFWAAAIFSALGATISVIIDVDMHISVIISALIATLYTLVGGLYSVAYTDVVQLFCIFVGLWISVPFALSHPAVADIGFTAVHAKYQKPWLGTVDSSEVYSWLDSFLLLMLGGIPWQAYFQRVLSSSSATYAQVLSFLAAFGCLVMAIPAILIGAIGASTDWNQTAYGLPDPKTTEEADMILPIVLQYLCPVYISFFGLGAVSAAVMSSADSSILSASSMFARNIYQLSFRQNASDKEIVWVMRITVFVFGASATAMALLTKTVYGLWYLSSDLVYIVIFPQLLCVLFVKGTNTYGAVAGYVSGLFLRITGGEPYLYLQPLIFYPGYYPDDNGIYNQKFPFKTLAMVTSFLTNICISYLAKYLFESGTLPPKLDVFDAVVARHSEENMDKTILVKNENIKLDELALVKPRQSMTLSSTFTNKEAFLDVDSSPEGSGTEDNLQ
Briefly: human choline transporter blockers, potency – cell-based, 5-point CRC, membrane potential dye, dose response (AID 504840). It is filed as functional.

Sequence of Phospholipase A2 (P04054 whole entry): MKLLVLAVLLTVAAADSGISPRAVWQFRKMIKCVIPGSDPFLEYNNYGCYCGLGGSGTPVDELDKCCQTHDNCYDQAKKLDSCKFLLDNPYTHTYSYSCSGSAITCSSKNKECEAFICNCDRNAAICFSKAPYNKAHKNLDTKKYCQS
Sequence of Cytochrome P450 2C19 (P33261 whole entry, the tested form may be a part): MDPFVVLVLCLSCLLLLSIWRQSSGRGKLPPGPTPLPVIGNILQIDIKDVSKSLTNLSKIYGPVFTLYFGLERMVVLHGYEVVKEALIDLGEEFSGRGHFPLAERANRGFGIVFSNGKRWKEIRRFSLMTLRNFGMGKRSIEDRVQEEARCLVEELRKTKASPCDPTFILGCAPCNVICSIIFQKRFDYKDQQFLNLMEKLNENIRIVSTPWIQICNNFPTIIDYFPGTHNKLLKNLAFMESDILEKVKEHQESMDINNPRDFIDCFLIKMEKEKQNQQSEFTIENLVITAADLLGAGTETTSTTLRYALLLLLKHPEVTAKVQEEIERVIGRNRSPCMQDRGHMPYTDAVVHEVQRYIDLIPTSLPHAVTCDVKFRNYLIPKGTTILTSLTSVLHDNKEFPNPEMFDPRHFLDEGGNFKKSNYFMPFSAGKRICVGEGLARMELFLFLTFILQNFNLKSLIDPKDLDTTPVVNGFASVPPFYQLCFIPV

What is called AC50 is the concentration giving half of the maximal activity seen. What is called IC50 is the midpoint of a concentration-inhibition curve. Turning to `CCCCCN1CC(=O)C(c2nc(-c3ccc(Cl)cc3)cs2)=C1N`, the AC50 in [1] was 1.58 µM (inconclusive); in assay [2], 1.12 µM (inconclusive). Besides, in [3], the IC50 is 5.38 µM (active).
Regarding `Cc1ccc2nc(N/N=C/c3ccccc3F)nc(-c3ccccc3)c2c1`, the figures for the IC50 in assay [4] and in assay [5] were 9.15 µM (active) and 17.9 µM (active), respectively.
As usually defined, the GI50 is the concentration at which growth is held to half of that of the control. Turning to `O=C[C@@H](CO)O[C@H](C=O)c1c[nH]c(=O)[nH]c1=O`, the GI50 in [6] is > 80.7 µM (inactive); in assay [7], 76.6 µM (inactive); in assay [8], 38.1 µM (inactive).
On to `CSc1nc2nccc(-c3ccc(Cl)cc3)n2n1`, for which the IC50 in assay [3] was 11.3 µM (active).
Take `O=C(c1ccc(Cl)cc1)N1CCN(c2ccc(F)cc2)CC1`: the AC50 in [9] is 5.2 µM (active).
In general, EC50 refers to the concentration needed to bring the measured effect to its halfway point. Regarding `CC(=O)Nc1ccc(CN2CCCC(C(=O)c3ccc(C(F)(F)F)cc3)C2)cc1` (stereo unspecified), the concentration giving a half-maximal response (EC50) in assay [10] is 2.66 µM (active).
For `COC(=O)c1ccc(/N=N/N(C)COc2ccc(Br)cc2)cc1`, the values for the GI50 in [6], in assay [7] and in assay [8] were 27 µM (inactive), > 66.8 µM (inactive) and 32.8 µM (inactive), respectively.
For `O=C(N/N=C/c1cccn1-c1cccc(C(=O)O)c1)Nc1ccccc1`, the EC50 in assay [11] and in assay [12] was > 300 µM (not active) each time. Further, in assay [3], the IC50 is 8.69 µM (active).
Turning to `O=C(/C=C/c1ccnc2ccccc12)c1cccs1`, in assay [9], the AC50 is 5.63 µM (active).
Take `CCOC(=O)C1=C(C)N=c2s/c(=C\c3cccc(OCC(=O)O)c3)c(=O)n2C1c1ccccc1OC` (stereo unspecified): the IC50 in assay [3] was 4.32 µM (active).
Turning to `O=c1c(Cc2ccc(F)cc2)c(O)ccn1CCc1c[nH]cn1`, the EC50 in assay [10] was 5.31 µM (active).
Turning to `C=CCn1c(SCc2nc3scc(-c4ccccc4)c3c(=O)[nH]2)nnc1-c1ccccc1F`, the IC50 in [4] is 12.1 µM (active); in [5], 15.9 µM (active).
For `CC12CCC(C(=O)N3CC=CCC3)(OC1=O)C2(C)C` (stereo unspecified), the GI50 in assay [6], in assay [7] and in [8] was > 100 µM (inactive) each time.
Turning to `COc1ccc(C(CNC(=O)c2cc(C)on2)N(C)C)cc1` (stereo unspecified), the EC50 in [10] is 0.376 µM (active).
For `O/N=N/c1cnccn1`, the GI50 in assay [6] is > 721 µM (inactive); in assay [7], 1070 µM (inactive); in [8] it was 668 µM (inactive).
For `CC(C)Cc1ccc(C(C)C(=O)N2CCN(/C=C/c3ccccc3)CC2)cc1` (stereo unspecified) the same measures were 7.35 µM (inactive), 13.7 µM (inactive) and 10.9 µM (inactive).
Take `COc1ccc(C(CNC(=O)C2CCN(S(=O)(=O)c3ccc(F)cc3)CC2)N(C)C)cc1` (stereo unspecified): the EC50 in [10] was 2.11 µM (active).
With `Cc1cccc(N2CCN(C(=O)C3CCN(c4ncnc5c4nc4n5CCCCC4)CC3)CC2C)c1` (stereo unspecified), the values for the IC50 in assay [4] and in assay [5] were 11.1 µM (active) and 15.3 µM (active), respectively.
With `Oc1c(Cl)cc(Cl)cc1/C=N/c1ccc2c(c1)OCCO2`, the IC50 in [4] is 11.2 µM (active); in assay [5], 7.3 µM (active); in assay [13] it was 10 µM (active).
Regarding `CCCC(=O)OCC1OC(n2ccc(N)nc2=O)C(OC(=O)CCC)C1OC(=O)CCC` (stereo unspecified), the results for the GI50 in assay [6], in assay [7] and in assay [8] were 0.2 µM (active), 1.86 µM (inactive) and 11.1 µM (inactive), respectively.
